The experiment has as its system abdominal aorta. The experiment is described as follows: Abdominal aortic ring vascular reactivity (organ bath). Format: cell-based, mice. As to conditions: contractile response. How it is done:
Aortic Vascular Reactivity: Abdominal aortic rings were assessed for vascular reactivity as previously described (32). Briefly, mice were euthanized by overdose of pentobarbital (50 mg, i.p.), and the abdominal aorta was quickly removed and placed in Kreb's buffer containing (in mmol/L): 118.3 NaCl, 4.7 KCl, 1.2 MgSO4, 1.2 KH2PO4, 25 NaHCO3, 2.5 CaCl2 and 11 glucose. Vascular rings (4-5 mm in length) were suspended in oxygenated Kreb's buffer (95% O2/5% CO2) in organ baths at 37° C. and connected to a force transducer via steel hooks. Resting tension was adjusted to 0.5 grams over 45 minutes. Contractile responses were tested in response to AVP (10^−10-10^−6 mol/L), phenylephrine (PE, 10^−8-3×10^−5), endothelin-1 (ET-1, 10^−10-10^−7), prostaglandin F2α (PGF2α, 10^−7-10^−4), and angiotensin II (Ang II, 10^−10-10^−7). Following sub-maximal contraction with PGF2α (40-50% of max; 3×10^−6-6×10^−6), relaxation responses to acetylcholine (10^−8-3×10^−5) and sodium nitroprusside (10^−9-10^−5) were determined.
Statistics: Data were analyzed by ANOVA with repeated measures as appropriate. Post-hoc analyses were performed using Bonferroni multiple-comparisons procedures. EC50 and maximum response calculations were performed by fitting individual dose-response data sets to a four-parameter logistic function (Hillslope method); y=min+([…])/(1+(x/EC50)^Hillslope). All mRNA fold changes were calculated using the Livak method (54). All analytical comparisons were performed using SigmaStat/SigmaPlot (Systat). All data are presented as mean±sem.

Take `NC(=O)CC[C@@H]1NC(=O)[C@H](Cc2ccccc2)NC(=O)[C@H](Cc2ccc(O)cc2)NC(=O)[C@@H](N)CSSC[C@@H](C(=O)N2CCC[C@H]2C(=O)N[C@@H](CCCN=C(N)N)C(=O)NCC(N)=O)NC(=O)[C@H](CC(N)=O)NC1=O` [Arginine vasopressin]: the “Maximum Response” value stood at 0.29 ± 0.03 g (male Control mice) and 0.12 ± 0.01 g (male sRA mice).

These data come from patent publication US9937182B2, “Therapeutic strategies for the treatment of preeclampsia” (UNIVERSITY OF IOWA RESEARCH FOUNDATION, priority 2013, dated 2018).
